Common to all, as to format: in vitro ADME
Data set [1] is described as follows: Compound stability in rat liver microsomes. Particulars: for CLint scaled at 1 μM: pH 7.4, in vivo CLint extrapolated; for half-life at 1 μM: pH 7.4, read-out: Rat T1/2. The procedure:
(§1) Human or rat liver microsomes incubations were conducted in duplicate in polypropylene tubes. […] Compounds were dissolved in DMSO and diluted with PBS such that the final concentration of DMSO was 0.05%. The enzymatic reactions were commenced with the addition of protein after a 3 min preincubation and incubated in a water bath open to the air at 37° C. Reactions were terminated at various time points (0, 5, 10, 15, 30, 60 min) by adding equal volume of ice-cold acetonitrile. The samples were stored at −80° C. until LC/MS/MS assays.
(§2) The concentrations of compounds in the incubation mixtures of human (or rat) liver microsomes were determined by a LC/MS/MS method. The ranges of the linearity in the concentration range were determined for each tested compounds.
(§3) A parallel incubation was performed using denatured microsomes as the negative control, and reactions were terminated at various time points (for example, 0, 15, 60 min) after incubation at 37° C.
(§4) Dextromethorphan (70 μM) was selected as the positive control, and reactions were terminated at various time points (0, 5, 10, 15, 30, 60 min) after incubation at 37° C. Both positive and negative control samples were included in each assay to ensure the integrity of the microsomal incubation system.
(§5) Alternatively, the stability of some of the compounds disclosed herein in human (or rat) liver microsomes were also conducted in the following protocol. The incubations were conducted in duplicate in polypropylene tubes. […] Compounds were dissolved in DMSO and diluted with K-buffer such that the final concentration of DMSO was 0.2%. The enzymatic reactions were commenced with the addition of 15 μL of NADPH (final concentration: 2 mM) after 10 min preincubation and incubated in a 37° C. incubator. Reactions were terminated at various time points (0, 15, 30, 60 min) by adding 135 μL acetonitrile (contain IS). Protein is removed by centrifugation with 4,000 rpm, 10 min.
(§6) In the above protocol, ketanserin (1 μM) was selected as the positive control, and reactions were terminated at various time points (0, 15, 30, 60 min) after incubation at 37° C. The positive control sample was included in each assay to ensure the integrity of the microsomal incubation system.
(§7) The concentrations of compounds in liver microsome incubations were plotted as a percentage of the relevant zero time point control for each reaction. The in vivo CLint were extrapolated (ref: Naritomi et al., Prediction of human hepatic clearance from in vivo animal experiments and in vitro metabolic studies with liver microsomes from animals and humans, Drug Metab. Dispos., 2001, 29: 1316-1324.) […]

Data set [2] in a line: Compound stability in human liver microsomes. Particulars: for CLint scaled at 1 μM: pH 7.4, in vivo CLint extrapolated; for half-life at 1 μM: pH 7.4, read-out: Human T1/2. The procedure:
as §1, §2, §3, §4, §5, §6, §7

Data set [3] in a line: Stability in human plasma. Particulars: for Human T1/2: 2 μM; for half-life at 2 μM: read-out: Human T1/2. As for the experimental part: (§8) Similarly, selected compounds of the invention were also assessed for their stability in human and rat plasma, and the results are listed in Table 3.
The nature of another data set: Stability in rat plasma. Particulars: read-out: Rat T1/2. As for the experimental part:
as §8

On to `CCCS(=O)(=O)N(C(=O)OCC)c1ccc(F)c(C(=O)c2c[nH]c3ncc(-c4ccc(Cl)cc4)cc23)c1F` [Ex. 1, ethyl 3-(5-(4-chlorophenyl)-1H-pyrrolo[2,3-b]pyridine-3-carbonyl)-2,4-difluorophenyl(propylsulfonyl)carbamate], for which, in data set [1], the intrinsic metabolic clearance (CLint scaled) at 1 μM was 142 mL/min/kg and the half-life at 1 μM amounted to 17.5 min. For the same molecule, in data set [2], the CLint scaled at 1 μM was 60.2 mL/min/kg and the half-life at 1 μM came out at 28.9 min.
Regarding `CCCS(=O)(=O)N(C(=O)c1ccccc1)c1ccc(F)c(C(=O)c2c[nH]c3ncc(-c4ccc(Cl)cc4)cc23)c1F` [Ex. 2, N-(3-(5-(4-chlorophenyl)-1H-pyrrolo[2,3-b]pyridine-3-carbonyl)-2,4-difluorophenyl)-N-(propylsulfonyl)benzamide], the CLint scaled at 1 μM in data set [1] is 193 mL/min/kg; in data set [2], 29.2 mL/min/kg. Moreover, the half-life at 1 μM in data set [1] stood at 12.8 min; in data set [2] it was 59.5 min.
As for `CCCS(=O)(=O)Nc1ccc(F)c(C(=O)c2cn(COC(=O)C(C)(C)C)c3ncc(-c4ccc(Cl)cc4)cc23)c1F` [Ex. 7a, (5-(4-chlorophenyl)-3-(2,6-difluoro-3-(propylsulfonamido)benzoyl)-1H-pyrrolo[2,3-b]pyridin-1-yl)methyl pivalate], in data set [1], the CLint scaled at 1 μM is 46.8 mL/min/kg and the half-life at 1 μM is 53.1 min. Further, in data set [3], the “Human T1/2” value is on record as “∞”. Moreover, in data set [2] (1 μM), the “Human T1/2” value is on record as “∞”. Besides, the half-life at 2 μM in the data set “Stability in rat plasma” turned out to be 68.8 min.
`CCCS(=O)(=O)Nc1ccc(F)c(C(=O)c2cn(COC(=O)C(C)C)c3ncc(-c4ccc(Cl)cc4)cc23)c1F` [Ex. 9, (5-(4-chlorophenyl)-3-(2,6-difluoro-3-(propylsulfonamido)benzoyl)-1H-pyrrolo[2,3-b]pyridin-1-yl)methyl isobutyrate]: the values for the half-life at 2 μM (in data set [3]; in “Stability in rat plasma”) were 113 min and 28.6 min, respectively.
In the case of `CCCS(=O)(=O)Nc1ccc(F)c(C(=O)c2cn(C(C)OC(=O)CC)c3ncc(-c4ccc(Cl)cc4)cc23)c1F` (stereo not drawn) [Ex. 10, 1-(5-(4-chlorophenyl)-3-(2,6-difluoro-3-(propylsulfonamido)benzoyl)-1H-pyrrolo[2,3-b]pyridin-1-yl)ethyl propionate], the half-life at 2 μM worked out at 88.1 min in data set [3] and 55.8 min in “Stability in rat plasma”.
The matching figures for `CCCS(=O)(=O)Nc1ccc(F)c(C(=O)c2cn(C(OC(=O)CC)C(C)C)c3ncc(-c4ccc(Cl)cc4)cc23)c1F` (stereo not drawn) [Ex. 11, 1-(5-(4-chlorophenyl)-3-(2,6-difluoro-3-(propylsulfonamido)benzoyl)-1H-pyrrolo[2,3-b]pyridin-1-yl)-2-methylpropyl propionate]: 162 min and 49.8 min.
In the case of `CCCS(=O)(=O)Nc1ccc(F)c(C(=O)c2cn(C(C)OC(=O)C(C)C)c3ncc(-c4ccc(Cl)cc4)cc23)c1F` (stereo not drawn) [Ex. 14, 1-(5-(4-chlorophenyl)-3-(2,6-difluoro-3-(propylsulfonamido)benzoyl)-1H-pyrrolo[2,3-b]pyridin-1-yl)ethyl isobutyrate], the half-life at 2 μM in data set [3] came out at 511 min. Besides, in data set [2], the CLint scaled at 1 μM is 51.7 mL/min/kg and the half-life at 1 μM worked out at 33.6 min.
For `CCCS(=O)(=O)Nc1ccc(F)c(C(=O)c2cn(COC(=O)CC)c3ncc(-c4ccc(Cl)cc4)cc23)c1F` [Ex. 15, (5-(4-chlorophenyl)-3-(2,6-difluoro-3-(propylsulfonamido)benzoyl)-1H-pyrrolo[2,3-b]pyridin-1-yl)methyl propionate], the half-life at 2 μM in data set [3] turned out to be 39.6 min; in the data set “Stability in rat plasma”, 18.6 min.
For `CCCS(=O)(=O)Nc1ccc(F)c(C(=O)c2cn(C(OC(=O)C(C)C)C(C)C)c3ncc(-c4ccc(Cl)cc4)cc23)c1F` (stereo not drawn) [Ex. 16, 1-(5-(4-chlorophenyl)-3-(2,6-difluoro-3-(propylsulfonamido)benzoyl)-1H-pyrrolo[2,3-b]pyridin-1-yl)-2-methylpropyl isobutyrate], the “Human T1/2” value in data set [3] is recorded as “∞”. The half-life at 2 μM in “Stability in rat plasma” turned out to be 157 min.
As for `CCCS(=O)(=O)Nc1ccc(F)c(C(=O)c2cn(COC(=O)C(N)C(C)C)c3ncc(-c4ccc(Cl)cc4)cc23)c1F.Cl` (stereo not drawn) [Ex. 18, (5-(4-chlorophenyl)-3-(2,6-difluoro-3-(propylsulfonamido)benzoyl)-1H-pyrrolo[2,3-b]pyridin-1-yl)methyl 2-amino-3-methylbutanoate hydrochloride], in data set [3], the half-life at 2 μM was determined as 6.08 min. In addition, in data set [2], the CLint scaled at 1 μM was 5.52 mL/min/kg and the half-life at 1 μM was 78.8 min. For the same molecule, in “Stability in rat plasma”, the half-life at 2 μM turned out to be 9.61 min.
Turning to `CCCS(=O)(=O)Nc1ccc(F)c(C(=O)c2cn(COC(=O)CN)c3ncc(-c4ccc(Cl)cc4)cc23)c1F.Cl` [Ex. 19, (5-(4-chlorophenyl)-3-(2,6-difluoro-3-(propylsulfonamido)benzoyl)-1H-pyrrolo[2,3-b]pyridin-1-yl)methyl 2-aminoacetate hydrochloride], the figures for the half-life at 2 μM (in data set [3]; in “Stability in rat plasma”) were 7.47 min and 5.9 min, respectively.
As for `CCCS(=O)(=O)Nc1ccc(F)c(C(=O)c2cn(COC(=O)[C@@H](N)C(C)CC)c3ncc(-c4ccc(Cl)cc4)cc23)c1F.Cl` (stereo partly drawn) [Ex. 22, (2S)-(5-(4-chlorophenyl)-3-(2,6-difluoro-3-(propylsulfonamido)benzoyl)-1H-pyrrolo[2,3-b]pyridin-1-yl)methyl-2-amino-3-methylpentanoate hydrochloride], the CLint scaled at 1 μM in data set [1] is 535 mL/min/kg; in data set [2], 23.9 mL/min/kg. Also, the half-life at 1 μM was determined as 4.6 min in data set [1] and 72.8 min in data set [2]. Also, the half-life at 2 μM in data set [3] stood at 6.81 min; in “Stability in rat plasma” it was 15.2 min.
For the molecule `CCCS(=O)(=O)Nc1ccc(F)c(C(=O)c2cn(COC(=O)OCC)c3ncc(-c4ccc(Cl)cc4)cc23)c1F` [Ex. 26, (5-(4-chlorophenyl)-3-(2,6-difluoro-3-(propylsulfonamido)benzoyl)-1H-pyrrolo[2,3-b]pyridin-1-yl)methyl ethyl carbonate], the half-life at 2 μM in data set [3] amounted to 81.6 min.
Take `CCCS(=O)(=O)Nc1ccc(F)c(C(=O)c2cn(COC(=O)OC(C)C)c3ncc(-c4ccc(Cl)cc4)cc23)c1F` [Ex. 27, (5-(4-chlorophenyl)-3-(2,6-difluoro-3-(propylsulfonamido)benzoyl)-1H-pyrrolo[2,3-b]pyridin-1-yl)methyl isopropyl carbonate]: the half-life at 2 μM in data set [3] was 79.6 min; in “Stability in rat plasma” it was 55.9 min.
Take `CCCS(=O)(=O)Nc1ccc(F)c(C(=O)c2cn(C(C)OC(=O)OCC)c3ncc(-c4ccc(Cl)cc4)cc23)c1F` (stereo not drawn) [Ex. 28, 1-(5-(4-chlorophenyl)-3-(2,6-difluoro-3-(propylsulfonamido)benzoyl)-1H-pyrrolo[2,3-b]pyridin-1-yl)ethyl ethyl carbonate]: the figures for the half-life at 2 μM (in data set [3]; in “Stability in rat plasma”) were 57.9 min and 49.5 min, respectively.
Regarding `CCCS(=O)(=O)Nc1ccc(F)c(C(=O)c2cn(C(C)OC(=O)OC(C)C)c3ncc(-c4ccc(Cl)cc4)cc23)c1F` (stereo not drawn) [Ex. 30, 1-(5-(4-chlorophenyl)-3-(2,6-difluoro-3-(propylsulfonamido)benzoyl)-1H-pyrrolo[2,3-b]pyridin-1-yl)ethyl isopropyl carbonate], in data set [3], the “Human T1/2” value is “∞”. For the same molecule, the half-life at 2 μM in the data set “Stability in rat plasma” was 56.3 min.

Usually CLint scaled stands for the capacity of the preparation to metabolise the compound, expressed as a volume cleared per time.
